Test results as given in the supplement of paper PMC11061612.

Columns and labels:
Etoposide = compound: COc1cc([C@@H]2c3cc4c(cc3[C@@H](O[C@@H]3O[C@@H]5CO[C@@H](C)O[C@H]5[C@H](O)[C@H]3O)[C@H]3COC(=O)[C@H]23)OCO4)cc(OC)c1O [Etoposide]; details: max 10 µM
Outline: (§1)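 Following 24 hours at 37°C and 5% CO2, cancer cell lines in 1536-well plates with 7.5 μl DMEM/F12 or RPMI and 10% FBS were dosed for 72 hours, final DMSO typically being 0.2%. CellTiter-Glo 2.0 luminescence, scaled between blank-well and DMSO-well means, gave the viability readout. Dose responses were fitted to a two-parameter logistic curve with a non-linear mixed effects model, and the single-agent IC50 was derived from this fit.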

Carboplatin = compound: C1CC(C1)(C(=O)[O-])C(=O)[O-].N.N.[Pt+2] [Carboplatin]; details: max 10 µM
Outline: as §1

AZD8186 = compound: C[C@@H](Nc1cc(F)cc(F)c1)c1cc(C(=O)N(C)C)cc2c(=O)cc(N3CCOCC3)oc12 [AZD8186]; details: max 10 µM
Outline: as §1

MK-2206 = compound: NC1(c2ccc(-c3nc4ccn5c(=O)[nH]nc5c4cc3-c3ccccc3)cc2)CCC1 [MK-2206]; details: max 10 µM
Outline: as §1

Savolitinib = compound: C[C@@H](c1ccc2nccn2c1)n1nnc2ncc(-c3cnn(C)c3)nc21 [Savolitinib]; details: max 1 µM
Outline: as §1

Prexasertib = compound: COc1cccc(OCCCN)c1-c1cc(Nc2cnc(C#N)cn2)n[nH]1 [Prexasertib]; details: max 1 µM
Outline: as §1

AZD2811 = compound: CCN(CCO)CCCOc1ccc2c(Nc3cc(CC(=O)Nc4cccc(F)c4)[nH]n3)ncnc2c1 [AZD2811]; details: max 1 µM
Outline: as §1

AZD5991 = compound: Cc1c2c(nn1C)CSCc1cc(n(C)n1)CSc1cc(c3ccccc3c1)OCCCc1c(C(=O)O)n(C)c3c-2c(Cl)ccc13 [AZD5991]; details: max 1 µM
Outline: as §1

Selumetinib = compound: Cn1cnc2c(F)c(Nc3ccc(Br)cc3Cl)c(C(=O)NOCCO)cc21 [Selumetinib]; details: max 10 µM
Outline: as §1

SG3199 = compound: CC1=CN2[C@@H](C1)C=NC3=CC(=C(C=C3C2=O)OC)OCCCCCOC4=C(C=C5C(=C4)N=C[C@@H]6CC(=CN6C5=O)C)OC [SG3199]; details: max 0.001 µM
Outline: as §1

Crizotinib = compound: C[C@@H](Oc1cc(-c2cnn(C3CCNCC3)c2)cnc1N)c1c(Cl)ccc(F)c1Cl [Crizotinib]; details: max 10 µM
Outline: as §1

AZD1390 = compound: CC(C)n1c(=O)n(C)c2cnc3cc(F)c(-c4ccc(OCCCN5CCCCC5)nc4)cc3c21 [AZD1390]; details: max 0.3 µM
Outline: as §1

Paclitaxel = compound: CC(=O)O[C@H]1C(=O)[C@@]2(C)[C@H]([C@H](OC(=O)c3ccccc3)[C@]3(O)C[C@H](OC(=O)[C@H](O)[C@@H](NC(=O)c4ccccc4)c4ccccc4)C(C)=C1C3(C)C)[C@]1(OC(C)=O)CO[C@@H]1C[C@@H]2O [Paclitaxel]; details: max 3 µM
Outline: as §1

[1] = compound: O=C(Nc1ccc2[nH]nc(-c3ccncc3)c2c1)[C@@H]1CCN(CC(=O)N2CCN(c3ccc(-c4ncccn4)cc3)CC2)C1; details: max 5 µM
Outline: as §1

Gefitinib = compound: COc1cc2ncnc(Nc3ccc(F)c(Cl)c3)c2cc1OCCCN1CCOCC1 [Gefitinib]; details: max 10 µM
Outline: as §1

SN-38 = compound: CCc1c2c(nc3ccc(O)cc13)-c1cc3c(c(=O)n1C2)COC(=O)[C@]3(O)CC [SN-38]; details: max 0.3 µM
Outline: as §1

AZD5153 = compound: COc1nnc2ccc(N3CCC(c4ccc(OCCN5CCN(C)C(=O)[C@H]5C)cc4)CC3)nn12 [AZD5153]; details: max 1 µM
Outline: as §1

Trametinib = compound: CC(=O)Nc1cccc(-n2c(=O)n(C3CC3)c(=O)c3c(Nc4ccc(I)cc4F)n(C)c(=O)c(C)c32)c1 [Trametinib]; details: max 1 µM
Outline: as §1

Dasatinib = compound: CC1=C(C(=CC=C1)Cl)NC(=O)C2=CN=C(S2)NC3=CC(=NC(=N3)C)N4CCN(CC4)CCO [Dasatinib]; details: max 2 µM
Outline: as §1

AZD1775 = compound: C=CCn1c(=O)c2cnc(Nc3ccc(N4CCN(C)CC4)cc3)nc2n1-c1cccc(C(C)(C)O)n1 [AZD1775]; details: max 3 µM
Outline: as §1

Alisertib = compound: COc1cc(Nc2ncc3c(n2)-c2ccc(Cl)cc2C(c2c(F)cccc2OC)=NC3)ccc1C(=O)O [Alisertib]; details: max 10 µM
Outline: as §1

Taselisib = compound: Cc1nc(-c2cn3c(n2)-c2ccc(-c4cnn(C(C)(C)C(N)=O)c4)cc2OCC3)n(C(C)C)n1 [Taselisib]; details: max 10 µM
Outline: as §1

Palbociclib = compound: CC(=O)c1c(C)c2cnc(Nc3ccc(N4CCNCC4)cn3)nc2n(C2CCCC2)c1=O [Palbociclib]; details: max 10 µM
Outline: as §1

5-Fluorouracil = compound: O=c1[nH]cc(F)c(=O)[nH]1 [5-Fluorouracil]; details: max 20 µM
Outline: as §1

SRA737 = compound: N#Cc1cnc(Nc2cc(NC[C@H]3CNCCO3)c(C(F)(F)F)cn2)cn1 [SRA737]; details: max 10 µM
Outline: as §1

AZD6738 = compound: C[C@@H]1COCCN1C2=NC(=NC(=C2)C3(CC3)[S@](=N)(=O)C)C4=C5C=CNC5=NC=C4 [AZD6738]; details: max 10 µM
Outline: as §1

AZD4320 = compound: CN(CC[C@H](CSC1=CC=CC=C1)NC2=C(C=C(C=C2)S(=O)(=O)NC(=O)C3=CC=C(C=C3)N4CCC(CC4)[C@H](C5=CC=CC=C5C6=CC=C(C=C6)Cl)O)S(=O)(=O)C(F)(F)F)CCO [AZD4320]; details: max 1 µM
Outline: as §1

AZD7648 = compound: Cc1cc2ncnn2cc1Nc1ncc2c(n1)n(C1CCOCC1)c(=O)n2C [AZD7648]; details: max 10 µM
Outline: as §1

AZD5363 = compound: C1CN(CCC1(C(=O)N[C@@H](CCO)C2=CC=C(C=C2)Cl)N)C3=NC=NC4=C3C=CN4 [AZD5363]; details: max 10 µM
Outline: as §1

Olaparib = compound: O=C(c1cc(Cc2n[nH]c(=O)c3ccccc23)ccc1F)N1CCN(C(=O)C2CC2)CC1 [Olaparib]; details: max 10 µM
Outline: as §1

Gemcitabine = compound: Nc1ccn([C@@H]2O[C@H](CO)[C@@H](O)C2(F)F)c(=O)n1 [Gemcitabine]; details: max 0.3 µM
Outline: as §1

Venetoclax = compound: CC1(C)CCC(CN2CCN(c3ccc(C(=O)NS(=O)(=O)c4ccc(NCC5CCOCC5)c([N+](=O)[O-])c4)c(Oc4cnc5[nH]ccc5c4)c3)CC2)=C(c2ccc(Cl)cc2)C1 [Venetoclax]; details: max 1 µM
Outline: as §1

AZD0156 = compound: CN(C)CCCOc1ccc(-c2ccc3ncc4c(c3c2)n(C2CCOCC2)c(=O)n4C)cn1 [AZD0156]; details: max 3 µM
Outline: as §1

Doxorubicin = compound: COc1cccc2c1C(=O)c1c(O)c3c(c(O)c1C2=O)C[C@@](O)(C(=O)CO)C[C@@H]3O[C@H]1C[C@H](N)[C@H](O)[C@H](C)O1 [Doxorubicin]; details: max 1 µM
Outline: as §1

Lapatinib = compound: CS(=O)(=O)CCNCc1ccc(-c2ccc3ncnc(Nc4ccc(OCc5cccc(F)c5)c(Cl)c4)c3c2)o1 [Lapatinib]; details: max 10 µM
Outline: as §1

Cell Line	IC50, cell viability 72 h (Etoposide)	IC50, cell viability 72 h (Carboplatin)	IC50, cell viability 72 h (AZD8186)	IC50, cell viability 72 h (MK-2206)	IC50, cell viability 72 h (Savolitinib)	IC50, cell viability 72 h (Prexasertib)	IC50, cell viability 72 h (AZD2811)	IC50, cell viability 72 h (AZD5991)	IC50, cell viability 72 h (Selumetinib)	IC50, cell viability 72 h (SG3199)	IC50, cell viability 72 h (Crizotinib)	IC50, cell viability 72 h (AZD1390)	IC50, cell viability 72 h (Paclitaxel)	IC50, cell viability 72 h [1]	IC50, cell viability 72 h (Gefitinib)	IC50, cell viability 72 h (SN-38)	IC50, cell viability 72 h (AZD5153)	IC50, cell viability 72 h (Trametinib)	IC50, cell viability 72 h (Dasatinib)	IC50, cell viability 72 h (AZD1775)	IC50, cell viability 72 h (Alisertib)	IC50, cell viability 72 h (Taselisib)	IC50, cell viability 72 h (Palbociclib)	IC50, cell viability 72 h (5-Fluorouracil)	IC50, cell viability 72 h (SRA737)	IC50, cell viability 72 h (AZD6738)	IC50, cell viability 72 h (AZD4320)	IC50, cell viability 72 h (AZD7648)	IC50, cell viability 72 h (AZD5363)	IC50, cell viability 72 h (Olaparib)	IC50, cell viability 72 h (Gemcitabine)	IC50, cell viability 72 h (Venetoclax)	IC50, cell viability 72 h (AZD0156)	IC50, cell viability 72 h (Doxorubicin)	IC50, cell viability 72 h (Lapatinib)
SK-N-AS (Neuroblastoma)	> 10 µM	> 10 µM	> 10 µM	> 10 µM	> 1 µM	0.01 µM	> 1 µM	> 1 µM	> 10 µM	> 0.001 µM	> 10 µM	> 0.3 µM	0.299 µM	> 5 µM	> 10 µM	0.0812 µM	> 1 µM	0.126 µM	> 2 µM	1 µM	0.78 µM	> 10 µM	> 10 µM	> 20 µM	8.03 µM	2.94 µM	> 1 µM	> 10 µM	> 10 µM	> 10 µM	0.232 µM	> 1 µM	> 3 µM	> 1 µM	> 10 µM
SKN (Other Solid Carcinomas)	> 10 µM	> 10 µM	1.84 µM	> 10 µM	> 1 µM	> 1 µM	> 1 µM	> 1 µM	> 10 µM	> 0.001 µM	> 10 µM	> 0.3 µM	0.0953 µM	> 5 µM	> 10 µM	> 0.3 µM	0.446 µM	> 1 µM	0.179 µM	> 3 µM	> 10 µM	2.87 µM	> 10 µM	> 20 µM	> 10 µM	> 10 µM	> 1 µM	> 10 µM	5.64 µM	> 10 µM	> 0.3 µM	> 1 µM	> 3 µM	> 1 µM	> 10 µM
SNU-387 (Hepatocellular Carcinoma)	> 10 µM	> 10 µM	8.36 µM	> 10 µM	> 1 µM	0.555 µM	> 1 µM	> 1 µM	> 10 µM	> 0.001 µM	> 10 µM	> 0.3 µM	0.0274 µM	> 5 µM	> 10 µM	> 0.3 µM	> 1 µM	0.583 µM	> 2 µM	1.03 µM	> 10 µM	> 10 µM	> 10 µM	> 20 µM	> 10 µM	> 10 µM	> 1 µM	> 10 µM	> 10 µM	> 10 µM	> 0.3 µM	> 1 µM	> 3 µM	> 1 µM	> 10 µM
SW872 (Other Solid Carcinomas)	6.82 µM	> 10 µM	> 10 µM	> 10 µM	> 1 µM	0.156 µM	> 1 µM	> 1 µM	> 10 µM	> 0.001 µM	> 10 µM	> 0.3 µM	0.21 µM	> 5 µM	> 10 µM	0.0209 µM	0.793 µM	> 1 µM	> 2 µM	> 3 µM	> 10 µM	8.84 µM	> 10 µM	8.43 µM	> 10 µM	> 10 µM	> 1 µM	> 10 µM	> 10 µM	> 10 µM	0.0691 µM	> 1 µM	> 3 µM	0.784 µM	> 10 µM
SW982 (Other Solid Carcinomas)	0.789 µM	> 10 µM	4.65 µM	> 10 µM	> 1 µM	0.0913 µM	0.444 µM	> 1 µM	> 10 µM	> 0.001 µM	3.59 µM	> 0.3 µM	0.00645 µM	2.85 µM	> 10 µM	0.00938 µM	0.0633 µM	0.702 µM	0.068 µM	1.14 µM	1.04 µM	2.62 µM	4.39 µM	11.3 µM	> 10 µM	5.53 µM	> 1 µM	> 10 µM	> 10 µM	> 10 µM	0.0136 µM	> 1 µM	> 3 µM	0.0804 µM	> 10 µM
